These results are taken from US4005103A, “Pyrrolidine derivatives” (priority 1973, dated 1977).

Read-outs that look alike come from different tables or passages of the source.

One may read the ED50 as the midpoint of the dose-response relation.

Series [1] is described as follows: Potentiation of amphetamine: stereotypies in rats after d-amphetamine sulphate. The class given is in vivo. The following applies: 30 min before 5 mg/kg d-amphetamine sulphate i.p., over 3 hours, maximum 24. As to the method:
1. POTENTIATION OF AMPHETAMINE
The test compound is administered intraperitoneally to rats 30 minutes before the intraperitoneal injection of 5 mg/kg of d-amphetamine sulphate. The intensity of the stereotypies over a period of 3 hours is assessed by attributing a number from 0 to 4. Table I indicates the sum of the assessments as a function of the doses administered. The maximum assessment is 24.

Series [2] in a line: Anorexigenic activity in dogs. Format: in vivo, Beagle dogs. To be noted: Canis lupus familiaris, po, read-out: percentage inhibition of consuming food. As to the method:
2. ANOREXIGENIC ACTIVITY IN DOGS
Beagle dogs are conditioned to take their food over the course of 5 minutes once per day. The test compound is administered orally in the form of a single dose of 10 mg/kg one hour before the food is presented. The amount of food ingested is measured at regular intervals.
Table II gives the percentage inhibition of consuming food as a function of the time after treatment.

A short description of series [3]: Anorexigenic activity in rats. The class given is in vivo, Sprague Dawley male rats. To be noted: for ED50: Rattus norvegicus, oral, Litchfield and Wilcoxon method, read-out: ED50 (50% inhibiting dose in relation to the consumption of food). As to the method: 3. ANOREXIGENIC ACTIVITY IN RATS
Two batches of three Sprague Dawley male rats (130 - 180 g) are conditioned to take their daily food over the course of 7 hours. Water is given as desired. The test compound is administered orally 30 minutes before the food is presented. The amount ingested is measured 1 hour and 2 hours later. The 50% inhibiting dose in relation to the consumption of food (ED50) and the confidence range are calculated according to the Litchfield and Wilcoxon method.
Table III gives the percentage inhibition in relation to the consumption of food as a function of the doses administered.

Series [4] is described as follows: Toxicity, isolated mice (death rate). To be noted: mouse, in vivo, 4 hours after treatment, read-out: percentage death rate. On the procedure: (§1) Batches of 10 mice are placed in boxes covered with grids (20 × 10 × 10 cm), either isolated individually, or in groups of 10. The test compound is administered orally to them. The death rate is noted 4 hours after the treatment.
(§2) Tables IV and V below give the percentage death rate for the products of Examples XXIV and XXVII compared with d-amphetamine sulphate.

The nature of series [5]: Toxicity, mice in groups (death rate). To be noted: mouse, in vivo, 4 hours after treatment, read-out: percentage death rate. On the procedure: as §1, §2
A short description of series [6]: Cardiovascular activity in anaesthetised dogs. The class given is in vivo. The following applies: for pulmonary and systemic hypertension: amphetamine injected intravenously. The text has this:
5. CARDIOVASCULAR ACTIVITY

Series [7] is described as follows: Clinical activity (food intake in man). The class given is in vivo. The following applies: daily dose of 50 mg. On the procedure:
The compounds are preferably presented in a form suitable for oral administration, for example in the form of gelatin-coated pills containing 25 mg of the active ingredient.

For `CC1NC(C2CC2)CC1c1ccc(Cl)cc1.Cl` (stereo not drawn) [XXIV, 2-cyclopropyl-4-(p-chlorophenyl)-5-methylpyrrolidine hydrochloride], the “sum of the assessments of intensity of stereotypies” value in series [1] (1 mg/kg intraperitoneal) worked out at 7; in series [1] (4 mg/kg intraperitoneal), 22; in series [1] (16 mg/kg intraperitoneal), 24. The inhibition in vivo at 10 mg/kg was 100% in series [2] (1 h); 100% in series [2] (2 h); 100% in series [2] (4 h); 80% in series [2] (24 h); 50% in series [2] (48 h). Moreover, the “percentage inhibition in relation to the consumption of food” value (“percentage inhibition in relation” for short) in series [3] (1 mg/kg oral, 1 hr) is given as 6%; in series [3] (1 mg/kg oral, 2 hrs) it was 5%; in series [3] (2 mg/kg oral, 1 hr), 44%; in series [3] (2 mg/kg oral, 2 hrs) it was 53%; in series [3] (4 mg/kg oral, 1 hr), 47%; in series [3] (4 mg/kg oral, 2 hrs), 34%. Besides, the “percentage inhibition in relation” value in series [3] (8 mg/kg oral, 1 hr) is given as 77%; in series [3] (8 mg/kg oral, 2 hrs) it was 71%; in series [3] (16 mg/kg oral, 1 hr), 77%; in series [3] (16 mg/kg oral, 2 hrs) it was 80%. The 50% effective dose (ED50) was 3.5 mg/kg in series [3] (1 hr) and 5.6 mg/kg in series [3] (2 hrs). Moreover, the mortality at 4 h in series [4] (16 mg/kg oral) was 0%; in series [4] (32 mg/kg oral), 0%; in series [4] (64 mg/kg oral), 0%; in series [4] (128 mg/kg oral), 27%; in series [5] (16 mg/kg oral), 0%; in series [5] (32 mg/kg oral) it was 0%. The mortality at 4 h in series [5] (64 mg/kg oral) and in series [5] (128 mg/kg oral) was 0% throughout. Also, in series [6], the systemic hypotension result is listed as “cause systemic hypotension”. In addition, the “pulmonary and systemic hypertension” value in series [6] is “do not cause these phenomena”. The “amount of food ingested daily” value in series [7] is given as “a decrease in the amount of food ingested daily”.
For the molecule `CC1NC(C2CC2)CC1c1ccc(Cl)c(Cl)c1.Cl` (stereo not drawn) [XXVII, 2-cyclopropyl-4-(3',4'-dichlorophenyl)-5-methylpyrrolidine hydrochloride], the “sum of the assessments of intensity of stereotypies” value is reported as 21 in series [1] (1 mg/kg intraperitoneal), 23 in series [1] (4 mg/kg intraperitoneal) and 24 in series [1] (16 mg/kg intraperitoneal). Also, the inhibition in vivo at 10 mg/kg in series [2] (1 h), in series [2] (2 h), in series [2] (4 h), in series [2] (24 h) and in series [2] (48 h) was 100% throughout. Also, the “percentage inhibition in relation” value is reported as 25% in series [3] (0.5 mg/kg oral, 1 hr); 30% in series [3] (0.5 mg/kg oral, 2 hrs); 39% in series [3] (1 mg/kg oral, 1 hr); 36% in series [3] (1 mg/kg oral, 2 hrs); 28% in series [3] (2 mg/kg oral, 1 hr); 37% in series [3] (2 mg/kg oral, 2 hrs). Besides, the “percentage inhibition in relation” value amounted to 58% in series [3] (4 mg/kg oral, 1 hr); 55% in series [3] (4 mg/kg oral, 2 hrs); 84% in series [3] (8 mg/kg oral, 1 hr); 83% in series [3] (8 mg/kg oral, 2 hrs); 100% in series [3] (16 mg/kg oral, 1 hr); 100% in series [3] (16 mg/kg oral, 2 hrs). Moreover, the values for the ED50 in series [3] (1 hr) and in series [3] (2 hrs) were 2.3 mg/kg and 2.2 mg/kg, respectively. The mortality at 4 h turned out to be 0% in series [4] (16 mg/kg oral); 20% in series [4] (32 mg/kg oral); 70% in series [4] (64 mg/kg oral); 0% in series [5] (16 mg/kg oral); 0% in series [5] (32 mg/kg oral); 0% in series [5] (64 mg/kg oral). In addition, the mortality at 4 h in series [5] (128 mg/kg oral) is 70%. In series [6], the systemic hypotension entry was “cause systemic hypotension”. Also, in series [6], the “pulmonary and systemic hypertension” value was “do not cause these phenomena”. Moreover, the “amount of food ingested daily” value in series [7] is listed as “a decrease in the amount of food ingested daily”.
As for `CC(N)Cc1ccccc1` (stereo not drawn) [Amphetamine, d-amphetamine sulphate, reference compound], the mortality at 4 h in series [4] (16 mg/kg oral) was 0%; in series [4] (32 mg/kg oral) it was 0%; in series [4] (64 mg/kg oral), 10%; in series [4] (128 mg/kg oral), 100%; in series [5] (4 mg/kg oral) it was 0%; in series [5] (8 mg/kg oral) it was 20%. Further, the mortality at 4 h in series [5] (16 mg/kg oral) and in series [5] (32 mg/kg oral) was 100% in each case. In addition, in series [6], the “pulmonary and systemic hypertension” value was “causes pulmonary and systemic hypertension”.
